For this assay, the system named is ATF4 pathway. Kind of assay: ATF4 Cell Based Assay (ATF4 reporter assay, NanoLuc luciferase). Conditions: SH-SY5Y-ATF4-NanoLuc cells challenged with Thapsigargin for 14-18 hours; average of two or more experimental runs; read-out: average ATF4 pathway inhibitory activity (IC50). From the text:
The ATF4 reporter assay measures the effect of Thapsigargin induced cellular stress on ATF4 expression. For this reporter assay, a stable cell line was created by transfecting SH-SY5Y cells with a plasmid containing the NanoLuc® luciferase gene fused to the 5′-UTR of ATF4, under the control of the CMV promoter. The ATF4 5′-UTR contains two open reading frames which mediate the cellular stress-dependent translation of the reporter gene. Clones stably expressing the reporter construct were isolated and selected based on the luminescence response to thapsigargin and inhibition of this signal by test compounds. Briefly, SH-SY5Y-ATF4-NanoLuc cells were challenged with Thapsigargin for 14-18 hours to determine the stress effect with or without test compounds.
Cells were propagated in growth media consisting of 90% DMEM F12 (InVitrogen #11320-033), 10% Fetal Bovine Serum (Gibco #10438-026), 5 mM Glutamax (Gibco #35050-061), 5 mM Hepes, (Gibco #15630-080), and 0.5 mg/ml Geneticin (Gibco #10131-027). Cells were prepared for the assay by removing all media from cells, washing the plated cells with phosphate buffered saline, and detached by adding a solution comprised of 10% Tryple express solution (InVitrogen12604-021) and 90% enzyme-free cell dissociation buffer HANKS base (Gibco 13150-016). The trypsin was deactivated by adding assay media comprised of 90% phenol-red free DMEM F12 (InVitrogen, 11039), 10% Fetal Bovine Serum (Gibco #10438-026), (5 mM Glutamax (Gibco #35050-061), 5 mM Hepes, (Gibco #15630-080), and 0.5 mg/ml Geneticin (Gibco #10131-027). Suspended cells were spun down at 300 g for 5 min, the supernatant was removed and the cell pellet was suspended in warm media (30-37° C.) comprised as above but without 10% Fetal Bovine Serum to a concentration of 1e6 cells/ml.
Assay plates were prepared by adding 250 nL of compound stock solution in 100% DMSO to each well, followed by dispensing 20 microliters/well cell suspension to deliver 15-20 k cell/well. Cells were incubated for 1 hour at 37° C. […]
The measurement of luciferase produced by the ATF4 constructs was measured as follows. Aliquots of the Nano-Glo reagent (Nano-Glo® Luciferase Assay Substrate, Promega, N113, Nano-Glo® Luciferase Assay Buffer, Promega, N112 (parts of Nano-Glo® Luciferase Assay System, N1150) were brought to room temperature, the substrate and buffer were mixed according to manufacturer's instructions. The cell plates were equilibrated to room temperature. 25 microliters/well of the mixed Nano-Glo reagent were dispensed into assay wells and pulse spun to settle contents and the plate was sealed with film. The plates were incubated at room temperature for 1 hour before detecting luminescence on an EnVision® plate reader.
(A reporter such as luciferase makes a cellular process visible.)

Here are results for four compounds from patent publication US20210145771A1, “N-(3-(2-(4-CHLOROPHENOXY)ACETAMIDO)BICYCLO[1.1.1] PENTAN-1-YL)-2-CYCLOBUTANE-1- CARBOXAMIDE DERIVATIVES AND RELATED COMPOUNDS AS ATF4 INHIBITORS FOR TREATING CANCER AND OTHER DISEASES” (GlaxoSmithKline Intellectual Property Development Limited, priority 2017, published 2021).

Structures can show the parent of a compound that is named as a salt.

Take `O=C(COc1ccc(Cl)cc1)NC12CC(NC(=O)C3CCCO3)(C1)C2` (stereo not shown) [Example 32, N-(3-(2-(4-chlorophenoxy)acetamido)bicyclo[1.1.1]pentan-1-yl)tetrahydrofuranyl-2-carboxamide]: the IC50 (as a rule, the concentration that inhibits the measured activity by half) was determined as 4.76 µM.
The value for `O=C(COc1ccc(Cl)cc1)NC12CC(NC(=O)C3CCCN3)(C1)C2` (stereo not shown) [Example 53, N-(3-(2-(4-chlorophenoxy)acetamido)bicyclo[1.1.1]pentan-1-yl)pyrrolidinyl-2-carboxamide hydrochloride] was 3.36 µM.
Consider `O=C(COc1ccc(Cl)cc1)NC12CC(NC(=O)C3CCC3)(C1)C2` [Example 34, N-(3-(2-(4-chlorophenoxy)acetamido)bicyclo[1.1.1]pentan-1-yl)cyclobutanecarboxamide], for which the half-inhibitory concentration (IC50) was found to be 3.27 µM.
Turning to `Cc1ccc(OCC(=O)NC23CC(NC(=O)COC4(C)CC4)(C2)C3)cc1` [Example 20, 2-(1-methylcyclopropoxy)-N-(3-(2-(p-tolyloxy)acetamido)bicyclo[1.1.1]pentan-1-yl)acetamide], the IC50 was 6.32 µM.
